Test: Pharmacokinetics of Coenzyme Q10 in plasma during and after 144-hour continuous IV infusion
Format: in vivo, human
Parameters: Coenzyme Q10 concentration in plasma, Mean ± SD: unit not given here
Experimental: Pharmacokinetics of Coenzyme Q10 was measured in the patients at time zero and at several time points during and after the 144-hour continuous intravenous (IV) infusion with Coenzyme Q10.

Structure (SMILES): COC1=C(OC)C(=O)C(C/C=C(\C)CC/C=C(\C)CC/C=C(\C)CC/C=C(\C)CC/C=C(\C)CC/C=C(\C)CC/C=C(\C)CC/C=C(\C)CC/C=C(\C)CCC=C(C)C)=C(C)C1=O [Coenzyme Q10]
- Coenzyme Q10 concentration in plasma, Mean ± SD (220 mg/kg/week, Arm 2, n = 9 (footnote c), time 96 hr): 348 ± 225^c
- Coenzyme Q10 concentration in plasma, Mean ± SD (220 mg/kg/week, Arm 2, n = 9 (footnote c), time 148 hr): 250 ± 251^c
- Coenzyme Q10 concentration in plasma, Mean ± SD (220 mg/kg/week, Arm 2, n = 11 (footnote b), time 4 hr): 158 ± 57^b
- Coenzyme Q10 concentration in plasma, Mean ± SD (220 mg/kg/week, Arm 2, n = 11 (footnote b), time 140 hr): 378 ± 244^b
- Coenzyme Q10 concentration in plasma, Mean ± SD (220 mg/kg/week, Arm 2, n = 11 (footnote b), time 146 hr): 282 ± 207^b
- Coenzyme Q10 concentration in plasma, Mean ± SD (220 mg/kg/week, Arm 2, n = 12 (footnote a), time 1 hr): 150 ± 54^a
- Coenzyme Q10 concentration in plasma, Mean ± SD (220 mg/kg/week, Arm 2, n = 12 (footnote a), time 73 hr): 227 ± 212^a
- Coenzyme Q10 concentration in plasma, Mean ± SD (220 mg/kg/week, Arm 2, n = 12 (footnote a), time 74 hr): 226 ± 193^a
- Coenzyme Q10 concentration in plasma, Mean ± SD (220 mg/kg/week, Arm 2, n = 12 (footnote a), time 143.5 hr): 363 ± 221^a
- Coenzyme Q10 concentration in plasma, Mean ± SD (220 mg/kg/week, Arm 2, n = 13, time 0 hr): 0
- Coenzyme Q10 concentration in plasma, Mean ± SD (220 mg/kg/week, Arm 2, n = 13, time 2 hr): 163 ± 66^
- Coenzyme Q10 concentration in plasma, Mean ± SD (220 mg/kg/week, Arm 2, n = 13, time 24 hr): 251 ± 155
- Coenzyme Q10 concentration in plasma, Mean ± SD (220 mg/kg/week, Arm 2, n = 13, time 71.5 hr): 255 ± 199
- Coenzyme Q10 concentration in plasma, Mean ± SD (220 mg/kg/week, Arm 2, n = 13, time 142 hr): 358 ± 214
- Coenzyme Q10 concentration in plasma, Mean ± SD (274 mg/kg/week, Arm 1, n = 3 (so in the source), time 0 hr): 0
- Coenzyme Q10 concentration in plasma, Mean ± SD (274 mg/kg/week, Arm 1, n = 3 (so in the source), time 1 hr): 173 ± 36
- Coenzyme Q10 concentration in plasma, Mean ± SD (274 mg/kg/week, Arm 1, n = 3 (so in the source), time 2 hr): 175 ± 42
- Coenzyme Q10 concentration in plasma, Mean ± SD (274 mg/kg/week, Arm 1, n = 3 (so in the source), time 4 hr): 185 ± 51
- Coenzyme Q10 concentration in plasma, Mean ± SD (274 mg/kg/week, Arm 1, n = 3 (so in the source), time 24 hr): 261 ± 149
- Coenzyme Q10 concentration in plasma, Mean ± SD (274 mg/kg/week, Arm 1, n = 3 (so in the source), time 71.5 hr): 390 ± 260
- Coenzyme Q10 concentration in plasma, Mean ± SD (274 mg/kg/week, Arm 1, n = 3 (so in the source), time 73 hr): 329 ± 260
- Coenzyme Q10 concentration in plasma, Mean ± SD (274 mg/kg/week, Arm 1, n = 3 (so in the source), time 74 hr): 335 ± 242
- Coenzyme Q10 concentration in plasma, Mean ± SD (274 mg/kg/week, Arm 1, n = 3 (so in the source), time 96 hr): 416 ± 291
- Coenzyme Q10 concentration in plasma, Mean ± SD (274 mg/kg/week, Arm 1, n = 3 (so in the source), time 140 hr): 513 ± 213
- Coenzyme Q10 concentration in plasma, Mean ± SD (274 mg/kg/week, Arm 1, n = 3 (so in the source), time 142 hr): 514 ± 260
- Coenzyme Q10 concentration in plasma, Mean ± SD (274 mg/kg/week, Arm 1, n = 3 (so in the source), time 143.5 hr): 510 ± 259
- Coenzyme Q10 concentration in plasma, Mean ± SD (274 mg/kg/week, Arm 1, n = 3 (so in the source), time 146 hr): 486 ± 254
- Coenzyme Q10 concentration in plasma, Mean ± SD (274 mg/kg/week, Arm 1, n = 3 (so in the source), time 148 hr): 380 ± 219
- Coenzyme Q10 concentration in plasma, Mean ± SD (274 mg/kg/week, Arm 1, n = 4 (footnote e), time 96 hr): 407 ± 195^e
- Coenzyme Q10 concentration in plasma, Mean ± SD (274 mg/kg/week, Arm 1, n = 4 (footnote e), time 140 hr): 517 ± 185^e
- Coenzyme Q10 concentration in plasma, Mean ± SD (274 mg/kg/week, Arm 1, n = 4 (footnote e), time 142 hr): 528 ± 179^e
- Coenzyme Q10 concentration in plasma, Mean ± SD (274 mg/kg/week, Arm 1, n = 5 (footnote d), time 4 hr): 181 ± 56^d
- Coenzyme Q10 concentration in plasma, Mean ± SD (274 mg/kg/week, Arm 1, n = 5 (footnote d), time 71.5 hr): 265 ± 188^d
- Coenzyme Q10 concentration in plasma, Mean ± SD (274 mg/kg/week, Arm 1, n = 5 (footnote d), time 146 hr): 460 ± 249^d
- Coenzyme Q10 concentration in plasma, Mean ± SD (274 mg/kg/week, Arm 1, n = 5 (footnote d), time 148 hr): 397 ± 230^d
- Coenzyme Q10 concentration in plasma, Mean ± SD (274 mg/kg/week, Arm 1, n = 6, time 0 hr): 0
- Coenzyme Q10 concentration in plasma, Mean ± SD (274 mg/kg/week, Arm 1, n = 6, time 1 hr): 188 ± 46
- Coenzyme Q10 concentration in plasma, Mean ± SD (274 mg/kg/week, Arm 1, n = 6, time 2 hr): 190 ± 38
- Coenzyme Q10 concentration in plasma, Mean ± SD (274 mg/kg/week, Arm 1, n = 6, time 24 hr): 287 ± 189
- Coenzyme Q10 concentration in plasma, Mean ± SD (274 mg/kg/week, Arm 1, n = 6, time 73 hr): 367 ± 313
- Coenzyme Q10 concentration in plasma, Mean ± SD (274 mg/kg/week, Arm 1, n = 6, time 74 hr): 387 ± 332
